Values of other authors as cited in the PKSmart pharmacokinetics tables (Seal et al. 2025).

How the values were obtained:
[1] = Lombardo et al. 2013, J Clin Pharmacol 53:178, doi 10.1177/0091270012440282; conditions: for Vd / clearance: in vivo, iv; for fraction unbound: plasma
[2] = Lombardo, Berellini, Obach 2018, Drug Metab Dispos 46:1466, doi 10.1124/dmd.118.082966; conditions: human; for MRT / Vd / clearance / half-life: in vivo, iv; for fraction unbound: plasma

Row | Compound | Vd ([1]; dog) [L/kg] | clearance ([1]; dog) [mL/min/kg] | Vd ([1]; rat) [L/kg] | clearance ([1]; rat) [mL/min/kg] | fraction unbound ([1]; rat) | MRT [2] [h] | Vd [2] [L/kg] | clearance [2] [mL/min/kg] | half-life [2] [h] | Vd ([1]; monkey) [L/kg] | clearance ([1]; monkey) [mL/min/kg] | fraction unbound [2] | fraction unbound ([1]; dog) | fraction unbound ([1]; monkey)
1 | CC(=O)CC(c1ccccc1)c1c(O)c2ccccc2oc1=O (configuration not stated) | 0.28 | 0.3 | 0.24 | 0.17 | 0.405 | 39 | 0.13 | – | – | – | – | – | – | –
2 | CC1=C(C(=O)O)N2C(=O)C(NC(=O)C(N)C3=CCC=CC3)[C@H]2SC1 (some centres not stated) | – | – | 1.1 | 21.7 | – | 1.1 | 0.21 | 3.3 | 0.85 | – | – | – | – | –
3 | COc1cccc2c1C(=O)c1c(O)c3c(c(O)c1C2=O)C[C@@](O)(C(=O)CO)C[C@@H]3O[C@H]1C[C@H](N)[C@H](I)[C@H](C)O1 | 2.6 | 6.5 | 14 | 36.6 | – | 6.4 | 53.6 | 140 | 10.3 | 14 | 43.3 | – | – | –
4 | O=NN(CCCl)C(=O)NCCCl | 1.1 | 17.8 | – | – | – | 0.26 | 1.2 | 78 | 0.37 | 0.9 | 21 | 0.23 | – | –
5 | C[C@@H](O)C1C(=O)N2C(C(=O)O)=C(S[C@@H]3CNC(C(=O)Nc4cccc(C(=O)O)c4)C3)[C@H](C)[C@H]12 (some centres not stated) | – | – | 0.34 | 10 | – | 4.4 | 0.12 | 0.45 | 3.8 | 0.17 | 0.47 | 0.1 | – | –
6 | COc1ccc(CCNCC(O)COc2cccc(C)c2)cc1OC (configuration not stated) | 4 | 45 | – | – | 0.06 | 2 | 0.67 | 5.5 | 1.9 | – | – | 0.015 | 0.04 | –
7 | C[C@]12CC[C@@H]3c4ccc(O)cc4CC[C@H]3[C@@H]1CC[C@@H]2O | – | – | 5.9 | 69 | 0.053 | 0.7 | 1.2 | 30 | 1.7 | – | – | – | – | –
8 | Oc1ccc2c3c1O[C@H]1[C@@H](O)CC[C@@]4(O)[C@@H](C2)N(CC2CCC2)CC[C@]314 | – | – | 11 | 111 | – | 3.5 | 4.6 | 22 | 3.7 | – | – | – | – | –
9 | COc1nc(N)nc2c1ncn2[C@@H]1O[C@H](CO)[C@@H](O)[C@@H]1O | – | – | – | – | – | 1 | 4.9 | 81 | 0.5 | 1.3 | 42 | – | – | –
10 | C[C@@H]1CCC[C@H](C)N1CCCC(O)(c1ccccc1)c1ccccn1 (some centres not stated) | 2.1 | 8.3 | 2.6 | 62 | 0.49 | 13 | 1.4 | 1.8 | 8.4 | 0.87 | 4.92 | – | 0.492 | 0.42
11 | O=P(O)(O)C(O)(Cn1ccnc1)P(=O)(O)O | 0.28 | 4.13 | – | – | – | 4.5 | 0.6 | 2.2 | 11 | – | – | 0.78 | – | –
12 | CC(C)(C)NCC(O)c1ccc(O)c(CO)c1 (configuration not stated) | 3.9 | – | 30 | – | 0.05 | 4.1 | 1.9 | – | – | – | – | – | 0.05 | –
13 | Nc1ccn([C@@H]2CO[C@H](CO)O2)c(=O)n1 | – | – | 1.42 | 23 | – | 6.9 | 1 | 2.4 | 82 | – | – | – | – | –
14 | Cc1nc2n(c(=O)c1CCN1CCC(c3noc4cc(F)ccc34)CC1)CCCC2 | – | – | 3.6 | 71.7 | 0.118 | – | – | – | 3.2 | – | – | – | 0.083 | 0.084
15 | Cc1nc2sccn2c(=O)c1CCN1CCC(=C(c2ccc(F)cc2)c2ccc(F)cc2)CC1 | – | – | 8 | 26.7 | 0.015 | 46.1 | 1.41 | 0.51 | 40 | – | – | 0.008 | – | –
16 | O=C(CCCN1CCC(O)(c2ccc(Cl)cc2)CC1)c1ccc(F)cc1 | 37 | – | 10.4 | – | 0.24 | 36 | 17 | – | 35 | 3.7 | – | – | – | –
17 | Cc1cccc(Nc2ccncc2S(=O)(=O)NC(=O)NC(C)C)c1 | 0.08 | 0.14 | 0.23 | 3.74 | 0.06 | 6.6 | 0.21 | 0.53 | 5.1 | – | – | – | 0.02 | –
18 | CN(C(=O)c1c(O)c2ccccc2n(C)c1=O)c1ccccc1 | – | – | 0.32 | 0.17 | – | 43 | 0.21 | 0.082 | 31 | – | – | – | – | –
19 | Nc1ncnc2c1ncn2CCOCP(=O)(O)O | 1.3 | 5.3 | 1.6 | 22 | – | 1.9 | 0.42 | 3.7 | 1.6 | 0.81 | 16 | – | – | –
20 | COC(=O)C1=C(C)NC(C)=C(C(=O)OCC(C)C)C1c1ccccc1[N+](=O)[O-] (configuration not stated) | 4.1 | 37.2 | 0.89 | 45.8 | – | 6.5 | 5.5 | 15 | 11 | – | – | – | 0.028 | –
21 | O=C(NCC1CCCCN1)c1cc(OCC(F)(F)F)ccc1OCC(F)(F)F (configuration not stated) | 1.1 | – | 6.9 | – | – | 21 | 6.1 | – | 12 | – | – | – | 0.3 | –
22 | CC(C)NCC(O)COc1ccc(COCCOC(C)C)cc1 (configuration not stated) | 3.5 | 7.9 | 1.4 | 13 | 0.85 | – | 2.4 | 3.7 | 10 | 3 | 12 | – | – | –
23 | COc1ccc2c3c1OC1C(=O)CC[C@@]4(O)[C@@H](C2)N(C)CC[C@]314 (some centres not stated) | – | – | – | – | 0.87 | – | – | – | – | – | – | 0.55 | – | –
24 | CNCC[C@@H](Oc1ccccc1C)c1ccccc1 | – | – | 4.3 | 36 | 0.11 | 1.5 | 0.85 | 9.3 | 5.2 | – | – | – | – | –
25 | CCCC1O[C@@H]2C[C@H]3[C@@H]4CC=C5CC(=O)C=C[C@]5(C)[C@H]4[C@@H](O)C[C@]3(C)[C@]2(C(=O)CO)O1 (some centres not stated) | – | – | 29.2 | 72 | 0.039 | 3.2 | 3.9 | 20 | 2.8 | – | – | – | – | –
26 | CCCCNC(=O)NS(=O)(=O)c1ccc(C)cc1 | – | – | 0.13 | 0.42 | – | 9.5 | 0.12 | – | 7 | – | – | – | – | –
27 | Nc1ccc(S(=O)(=O)Nc2ncccn2)cc1 | – | – | 0.34 | 1.1 | 0.86 | 8.8 | 0.29 | 0.55 | 7 | 0.5 | 0.64 | – | 0.78 | 0.463
28 | Cc1ncc([N+](=O)[O-])n1CCO | 0.1 | 2.5 | 1.2 | 5.8 | – | 7.8 | 0.4 | 0.85 | 7.1 | – | – | – | 0.983 | –
29 | CN1CCC[C@H]1c1cccnc1 | 3.3 | 42 | 2.77 | 46.3 | – | 2.4 | 2.6 | 18 | 2 | – | – | – | – | –
